From ChEMBL document CHEMBL1201862, “PubChem BioAssay data set” (2004)
Active and inactive are the calls of the source.

How the values were obtained:
[1] = target: DNA dC->dU-editing enzyme APOBEC-3G (Homo sapiens, UniProt Q9HC16); assay: Dose Response confirmation of small molecule APOBEC3G DNA Deaminase Inhibitors via a fluorescence-based single-stranded DNA deaminase assay. [Related pubchem assays (depositor defined):AID493012, AID493028]; type: functional
[2] = target: DNA dC->dU-editing enzyme APOBEC-3A (Homo sapiens, UniProt P31941); assay: A3A deaminase inhibition for selectivity – biochemical, dose response (AID 504722); type: functional
[3] = target: T1, Small ubiquitin-related modifier 1 (Homo sapiens, UniProt P63165); assay: SUMO1 protein-protein binding blockers, potency – biochemical, FRET, dose response (AID 624383); type: functional; conditions: read-out: IC50_Mean
[4] = target: T2, Apoptotic protease-activating factor 1 (Homo sapiens, UniProt O14727); assay: activation of Apaf-1 mediated apoptosis – fluorescent, uHTS hits, dose response (AID 588554); type: functional
T2 sequence (O14727 whole entry): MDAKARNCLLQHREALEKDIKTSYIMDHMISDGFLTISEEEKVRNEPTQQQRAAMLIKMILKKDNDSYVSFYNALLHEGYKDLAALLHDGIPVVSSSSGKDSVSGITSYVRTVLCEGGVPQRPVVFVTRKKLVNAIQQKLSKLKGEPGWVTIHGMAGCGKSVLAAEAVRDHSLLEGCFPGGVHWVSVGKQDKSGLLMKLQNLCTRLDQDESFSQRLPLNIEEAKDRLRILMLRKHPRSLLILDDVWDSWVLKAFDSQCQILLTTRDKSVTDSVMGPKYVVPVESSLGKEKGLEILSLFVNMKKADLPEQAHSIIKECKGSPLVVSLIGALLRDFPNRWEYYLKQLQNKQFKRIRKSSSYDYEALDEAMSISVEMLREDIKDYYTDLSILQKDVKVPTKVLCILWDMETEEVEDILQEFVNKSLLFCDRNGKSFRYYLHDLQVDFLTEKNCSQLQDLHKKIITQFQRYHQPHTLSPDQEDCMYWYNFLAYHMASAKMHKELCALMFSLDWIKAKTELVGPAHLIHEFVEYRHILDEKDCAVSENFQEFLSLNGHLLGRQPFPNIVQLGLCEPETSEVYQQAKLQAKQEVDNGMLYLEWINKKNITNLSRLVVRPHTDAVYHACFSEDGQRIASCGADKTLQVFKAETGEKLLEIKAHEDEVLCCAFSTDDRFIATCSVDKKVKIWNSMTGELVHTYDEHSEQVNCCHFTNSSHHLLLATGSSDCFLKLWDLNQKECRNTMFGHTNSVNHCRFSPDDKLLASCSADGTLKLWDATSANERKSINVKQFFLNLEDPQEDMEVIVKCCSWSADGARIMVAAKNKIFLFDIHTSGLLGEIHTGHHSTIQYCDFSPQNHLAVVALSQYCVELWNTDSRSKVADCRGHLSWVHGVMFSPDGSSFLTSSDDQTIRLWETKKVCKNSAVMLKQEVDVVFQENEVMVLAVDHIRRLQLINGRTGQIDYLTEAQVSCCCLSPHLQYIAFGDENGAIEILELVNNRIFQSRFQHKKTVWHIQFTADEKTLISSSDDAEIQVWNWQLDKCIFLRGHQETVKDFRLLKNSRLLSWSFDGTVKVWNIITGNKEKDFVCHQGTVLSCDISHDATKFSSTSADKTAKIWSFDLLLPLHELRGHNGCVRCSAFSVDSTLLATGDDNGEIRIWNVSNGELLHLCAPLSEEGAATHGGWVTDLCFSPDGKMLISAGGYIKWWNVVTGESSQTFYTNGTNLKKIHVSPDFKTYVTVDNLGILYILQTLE

[5] = target: DNA (cytosine-5)-methyltransferase 1 (Homo sapiens, UniProt P26358); assay: inhibition of DNA methylation by DNMT1 – biochemical, fluorescent molecular beacon, confirmation (AID 602386); type: functional
[6] = target: T3, Carboxy-terminal domain RNA polymerase II polypeptide A small phosphatase 1 (Homo sapiens, UniProt Q9GZU7); assay: CTDSP1 inhibitors, concentration-response, biochemical, absorbance readout, ultra-high-throughput screen actives (AID 540297); type: functional
T3 sequence (Q9GZU7 whole entry): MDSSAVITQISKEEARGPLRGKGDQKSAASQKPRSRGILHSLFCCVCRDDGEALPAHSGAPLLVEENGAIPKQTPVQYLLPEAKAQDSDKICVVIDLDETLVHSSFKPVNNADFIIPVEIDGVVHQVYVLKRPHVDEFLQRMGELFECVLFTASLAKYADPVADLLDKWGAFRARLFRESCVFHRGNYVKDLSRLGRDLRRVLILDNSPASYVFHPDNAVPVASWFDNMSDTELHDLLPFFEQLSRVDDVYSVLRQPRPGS

[7] = target: T1, Small ubiquitin-related modifier 1; assay: SUMO1 protein interaction blockers, potency – biochemical, fluorescence polarization, uHTS hits, dose response (AID 624382); type: functional; conditions: read-out: IC50_Mean
[8] = Luminescence Cell-Based Dose Response HTS to Identify Activators of Luciferase Translation or Activity in H4 […] Cells. [Related pubchem assays: 1829 (Project Summary), 1814 (Primary HTS)]; type: functional
[9] = Luminescence Cell-Based Dose Retest to Confirm Inhibitors of Cancer Stem Cells. [Related pubchem assays (depositor defined):AID2717, AID2721]; type: functional; conditions: Homo sapiens
H4 = assay: Luminescence Cell-Based Dose Response HTS to Identify Activators of 5'UTR Stem-Loop Driven Prion Protein mRNA Translation in H4 Neuroglioblastoma Cells. [Related pubchem assays: 1829 (Project Summary), 1814 (Primary HTS)]; type: functional; conditions: Homo sapiens
[10] = viability loss of HMLE_sh_eGFP cells – cell-based, luminescence, counter-screen for HMLE_sh_ECad selective toxicity project, dose response (AID 463074); type: functional, Homo sapiens;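 note: HMLE human mammary epithelial cells expressing control shRNA against eGFP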
[11] = Luminescence Cell-Based Dose Confirmation HTS to Identify Activators of 5'UTR Stem-Loop Driven Alpha-Synuclein mRNA Translation in H4 Neuroglioblastoma Cells. [Related pubchem assays: 1829 (Project Summary), 1814 (Primary HTS)]; type: functional
cells [12] = type: functional, cell-based
cells [13] = type: functional, cell-based; remark: listed apart in the source
Beta-galactosidase = Beta-galactosidase (Escherichia coli, UniProt Q8VNN2); assay: PubChem AID 485352; type: functional
[14] = target: Type-1 angiotensin II receptor (Homo sapiens, UniProt P30556); assay: antagonism of angiotensin II type 1 receptor – cell-based, uHTS hits, selectivity assay for APJ receptor antagonist project, dose response (AID 463214); type: functional;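 note: antagonist potency against angiotensin II stimulated AT1 response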
Sequence of Type-1 angiotensin II receptor (P30556 whole entry): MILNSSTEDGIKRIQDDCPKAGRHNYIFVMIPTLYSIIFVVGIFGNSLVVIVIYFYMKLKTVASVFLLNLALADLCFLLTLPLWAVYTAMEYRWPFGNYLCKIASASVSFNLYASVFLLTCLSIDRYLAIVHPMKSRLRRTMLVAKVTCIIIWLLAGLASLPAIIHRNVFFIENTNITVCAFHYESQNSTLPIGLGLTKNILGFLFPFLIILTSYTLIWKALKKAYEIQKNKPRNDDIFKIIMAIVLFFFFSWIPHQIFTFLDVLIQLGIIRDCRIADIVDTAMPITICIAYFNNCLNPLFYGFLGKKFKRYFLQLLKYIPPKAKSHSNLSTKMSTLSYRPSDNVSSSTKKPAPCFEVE

T1 sequence (P63165 whole entry): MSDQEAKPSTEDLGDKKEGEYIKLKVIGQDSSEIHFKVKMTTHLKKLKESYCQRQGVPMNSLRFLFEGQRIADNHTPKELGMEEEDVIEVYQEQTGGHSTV
Sequence of Beta-galactosidase (Q8VNN2 whole entry): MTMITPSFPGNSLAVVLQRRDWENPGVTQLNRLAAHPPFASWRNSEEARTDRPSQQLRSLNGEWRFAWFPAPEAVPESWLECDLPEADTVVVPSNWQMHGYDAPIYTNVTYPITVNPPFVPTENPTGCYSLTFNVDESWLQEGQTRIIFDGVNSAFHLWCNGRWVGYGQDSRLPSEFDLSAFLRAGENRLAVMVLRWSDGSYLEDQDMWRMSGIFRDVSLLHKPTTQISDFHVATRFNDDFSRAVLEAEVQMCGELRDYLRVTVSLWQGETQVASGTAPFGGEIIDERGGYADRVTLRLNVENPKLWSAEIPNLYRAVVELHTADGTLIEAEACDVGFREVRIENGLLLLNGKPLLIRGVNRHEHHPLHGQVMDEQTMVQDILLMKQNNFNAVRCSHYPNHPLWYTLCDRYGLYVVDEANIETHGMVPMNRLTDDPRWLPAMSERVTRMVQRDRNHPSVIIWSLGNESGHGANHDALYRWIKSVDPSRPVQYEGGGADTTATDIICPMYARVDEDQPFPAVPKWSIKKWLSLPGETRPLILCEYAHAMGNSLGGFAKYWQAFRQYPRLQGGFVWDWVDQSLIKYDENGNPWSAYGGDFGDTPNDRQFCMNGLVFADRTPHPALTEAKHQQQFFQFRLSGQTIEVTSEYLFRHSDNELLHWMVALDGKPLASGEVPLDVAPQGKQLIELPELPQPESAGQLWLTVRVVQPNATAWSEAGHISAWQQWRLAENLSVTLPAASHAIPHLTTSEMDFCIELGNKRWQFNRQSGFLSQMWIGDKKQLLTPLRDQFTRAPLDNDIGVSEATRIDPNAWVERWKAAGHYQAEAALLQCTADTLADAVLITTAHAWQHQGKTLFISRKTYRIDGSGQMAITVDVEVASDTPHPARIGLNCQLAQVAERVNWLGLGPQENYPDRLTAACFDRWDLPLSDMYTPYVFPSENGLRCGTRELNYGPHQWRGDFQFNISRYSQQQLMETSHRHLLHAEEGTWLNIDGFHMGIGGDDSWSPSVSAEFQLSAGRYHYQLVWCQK
Sequence of DNA dC->dU-editing enzyme APOBEC-3A (P31941 whole entry): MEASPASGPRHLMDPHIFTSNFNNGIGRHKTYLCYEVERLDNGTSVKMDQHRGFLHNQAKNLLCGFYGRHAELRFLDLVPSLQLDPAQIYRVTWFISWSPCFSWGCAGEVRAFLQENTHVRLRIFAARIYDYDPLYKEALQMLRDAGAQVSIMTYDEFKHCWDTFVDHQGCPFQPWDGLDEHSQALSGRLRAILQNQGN
Sequence of DNA (cytosine-5)-methyltransferase 1 (P26358 whole entry, the tested form may be a part): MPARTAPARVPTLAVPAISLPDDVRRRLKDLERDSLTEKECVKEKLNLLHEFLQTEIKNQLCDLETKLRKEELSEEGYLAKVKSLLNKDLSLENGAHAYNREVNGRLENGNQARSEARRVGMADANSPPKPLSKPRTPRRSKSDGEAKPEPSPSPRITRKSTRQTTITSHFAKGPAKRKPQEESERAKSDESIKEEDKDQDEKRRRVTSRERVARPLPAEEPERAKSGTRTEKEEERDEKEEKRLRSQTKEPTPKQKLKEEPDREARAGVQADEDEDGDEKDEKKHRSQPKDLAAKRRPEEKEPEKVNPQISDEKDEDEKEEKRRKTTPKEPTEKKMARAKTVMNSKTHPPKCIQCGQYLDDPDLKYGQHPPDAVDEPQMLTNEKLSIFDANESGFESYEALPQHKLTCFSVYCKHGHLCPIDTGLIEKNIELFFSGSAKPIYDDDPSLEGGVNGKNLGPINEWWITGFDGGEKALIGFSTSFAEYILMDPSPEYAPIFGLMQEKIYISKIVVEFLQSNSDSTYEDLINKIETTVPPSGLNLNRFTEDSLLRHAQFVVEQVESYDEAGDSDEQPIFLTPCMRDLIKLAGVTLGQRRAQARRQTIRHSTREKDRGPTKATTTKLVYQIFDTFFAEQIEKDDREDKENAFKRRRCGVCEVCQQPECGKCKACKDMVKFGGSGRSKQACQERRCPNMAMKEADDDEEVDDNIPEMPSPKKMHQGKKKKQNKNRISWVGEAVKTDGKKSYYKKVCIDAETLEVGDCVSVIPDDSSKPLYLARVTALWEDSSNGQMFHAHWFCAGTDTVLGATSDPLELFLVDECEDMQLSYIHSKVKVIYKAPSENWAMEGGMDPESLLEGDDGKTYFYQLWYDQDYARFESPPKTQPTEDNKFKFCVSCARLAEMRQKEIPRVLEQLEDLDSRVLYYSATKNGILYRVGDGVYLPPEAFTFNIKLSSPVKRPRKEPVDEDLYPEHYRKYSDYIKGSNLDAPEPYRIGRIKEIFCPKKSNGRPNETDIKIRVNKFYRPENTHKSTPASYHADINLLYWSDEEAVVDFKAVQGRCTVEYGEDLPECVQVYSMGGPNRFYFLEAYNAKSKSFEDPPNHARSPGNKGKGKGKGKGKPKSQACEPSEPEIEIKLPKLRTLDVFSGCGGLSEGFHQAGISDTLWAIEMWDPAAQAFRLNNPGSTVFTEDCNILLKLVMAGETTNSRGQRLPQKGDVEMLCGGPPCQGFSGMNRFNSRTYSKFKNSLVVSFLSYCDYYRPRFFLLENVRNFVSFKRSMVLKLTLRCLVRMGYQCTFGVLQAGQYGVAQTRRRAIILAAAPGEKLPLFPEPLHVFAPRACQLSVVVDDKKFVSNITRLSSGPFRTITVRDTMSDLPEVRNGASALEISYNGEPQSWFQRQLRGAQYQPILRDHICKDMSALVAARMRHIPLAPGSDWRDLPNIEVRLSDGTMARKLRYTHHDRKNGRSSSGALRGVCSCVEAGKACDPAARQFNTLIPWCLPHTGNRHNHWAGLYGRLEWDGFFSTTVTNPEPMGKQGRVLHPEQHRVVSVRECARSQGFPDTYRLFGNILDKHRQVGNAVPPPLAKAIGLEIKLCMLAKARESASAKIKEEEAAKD
Sequence of DNA dC->dU-editing enzyme APOBEC-3G (Q9HC16 whole entry): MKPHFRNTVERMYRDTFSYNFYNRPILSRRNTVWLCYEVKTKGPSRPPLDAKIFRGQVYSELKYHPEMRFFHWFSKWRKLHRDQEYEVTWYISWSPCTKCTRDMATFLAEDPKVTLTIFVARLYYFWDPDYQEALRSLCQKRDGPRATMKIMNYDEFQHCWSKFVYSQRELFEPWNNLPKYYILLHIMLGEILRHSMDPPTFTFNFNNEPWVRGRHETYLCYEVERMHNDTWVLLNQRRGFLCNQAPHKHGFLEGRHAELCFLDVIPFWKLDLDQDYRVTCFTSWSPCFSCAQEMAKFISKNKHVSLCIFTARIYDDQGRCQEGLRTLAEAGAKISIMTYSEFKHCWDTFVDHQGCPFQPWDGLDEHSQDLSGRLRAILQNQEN

For `C=C(C)C(=O)Nc1cccc(C2=NOC3(C2)C[C@@H](C(N)=O)N(C(=O)/C=C/CC)C3)c1` (stereo partly specified), the IC50 [1] was 6.06 µM (active), the IC50 [2] was > 100 µM (inactive) and the IC50 [3] was 3.25 µM (active). For the same molecule, the EC50 [4] was 4.43 µM (active), the IC50 [5] was 5.96 µM (active) and the IC50 [6] was 1.73 µM (active). The IC50 [7] was > 66.6 µM (inactive).
For `CC(C)c1ccc(NC(=O)CCc2ccccc2)cc1`, the EC50 [8] was 52.1 µM (active), the AC50 [9] was 6.63 µM (active) and the EC50 (H4) was > 120 µM (inconclusive). The AC50 [10] was 40.5 µM (active), the EC50 [11] was 7.33 µM (active) and the EC50 (cells [12]) was > 350 µM (not active). For the same molecule, the EC50 (cells [13]) was > 350 µM (not active).
In the case of `O=C(CCC(=O)OCC(=O)c1ccc(Cl)cc1Cl)Nc1cccc2cccnc12`, the EC50 (Beta-galactosidase) is reported as > 40 µM (inactive) and the IC50 [14] is reported as > 40 µM (not active).
